Laboratory results from ChEMBL document CHEMBL3885881, “DrugMatrix”.

Species on record: Rattus norvegicus
Test: DrugMatrix - Regimen: Daily Repeat
Assay type: toxicity, organism-based, Sprague-Dawley
Parameters: regimen Daily Repeat, gender Male, age 6-8 weeks
Settings: in vivo, po, route oral GAVAGE, vehicle 100 % SALINE; for ABSOLUTE BASOPHIL / ABSOLUTE EOSINOPHIL / ABSOLUTE LYMPHOCYTE / ABSOLUTE MONOCYTE / ABSOLUTE SEGMENTED NEUTROPHIL / BASOPHIL / EOSINOPHIL / ERYTHROCYTE COUNT / HEMATOCRIT / HEMOGLOBIN / LEUKOCYTE COUNT / LYMPHOCYTE / MEAN CORPUSCULAR HEMOGLOBIN / MEAN CORPUSCULAR HEMOGLOBIN CONCENTRATION / MEAN CORPUSCULAR VOLUME / MONOCYTE / NEUTROPHIL / NUCLEATED RED BLOOD CELLS / PLATELET COUNT: tissue Blood; for ALANINE AMINOTRANSFERASE / ALBUMIN / ALKALINE PHOSPHATASE / ASPARTATE AMINOTRANSFERASE / BLOOD UREA NITROGEN / CARBON DIOXIDE / CHLORIDE / CHOLESTEROL / CREATINE PHOSPHOKINASE / CREATININE / GLUCOSE / LACTATE DEHYDROGENASE / LIPASE / PHOSPHORUS / POTASSIUM / SODIUM / TOTAL BILIRUBIN / TOTAL PROTEIN / URIC ACID: tissue Plasma
[1] = 3000 mg/kg, […], dose level Low, time 7 day
[2] = 6000 mg/kg, 72 h, dose level High, time 3 day
[3] = 6000 mg/kg, […], dose level High, time 7 day

CCO [ALCOHOL] was tested, and the “ABSOLUTE BASOPHIL” value [1] was 0 CELLS/uL, the “ABSOLUTE EOSINOPHIL” value [1] was 0 CELLS/uL and the “ABSOLUTE LYMPHOCYTE” value [1] was 9669 CELLS/uL. The “ABSOLUTE MONOCYTE” value [1] was 317.33 CELLS/uL, the “ABSOLUTE SEGMENTED NEUTROPHIL” value [1] was 1063.67 CELLS/uL and the BASOPHIL [1] was 0%. The EOSINOPHIL [1] was 0%, the “ERYTHROCYTE COUNT” value [1] was 5.39 x10E6/uL and the HEMATOCRIT [1] was 34.88%. The HEMOGLOBIN [1] was 13.85 G/DL, the “LEUKOCYTE COUNT” value [1] was 11.05 x10E3/uL and the LYMPHOCYTE [1] was 87%. The “MEAN CORPUSCULAR HEMOGLOBIN” value [1] was 25.73 pg, the “MEAN CORPUSCULAR HEMOGLOBIN CONCENTRATION” value [1] was 39.75 G/DL and the “MEAN CORPUSCULAR VOLUME” value [1] was 64.77 fL. The MONOCYTE [1] was 2.83%, the NEUTROPHIL [1] was 10.17% and the “NUCLEATED RED BLOOD CELLS” value [1] was 0 /100WBC. The “PLATELET COUNT” value [1] was 1110 x10E3/uL, the “ALANINE AMINOTRANSFERASE” value [1] was 51.67 u/L and the ALBUMIN [1] was 4.5 G/DL. The “ALKALINE PHOSPHATASE” value [1] was 281.33 u/L, the “ASPARTATE AMINOTRANSFERASE” value [1] was 82.67 u/L and the “BLOOD UREA NITROGEN” value [1] was 15 mg/dL. For the same compound, the “CARBON DIOXIDE” value [1] was 31 mmol/L, the CHLORIDE [1] was 98.33 MEQ/L and the CHOLESTEROL [1] was 69.83 mg/dL. For the same compound, the “CREATINE PHOSPHOKINASE” value [1] was 250 u/L, the CREATININE [1] was 0.19 mg/dL and the GLUCOSE [1] was 135.67 mg/dL. For the same compound, the “LACTATE DEHYDROGENASE” value [1] was 123.5 u/L, the LIPASE [1] was 10.17 u/L and the PHOSPHORUS [1] was 10.85 mg/dL. The POTASSIUM [1] was 5.95 MEQ/L, the SODIUM [1] was 143.15 MEQ/L and the “TOTAL BILIRUBIN” value [1] was 0.22 mg/dL. For the same compound, the “TOTAL PROTEIN” value [1] was 5.93 G/DL, the “URIC ACID” value [1] was 0.68 mg/dL and the “ABSOLUTE BASOPHIL” value [2] was 0 CELLS/uL. For the same compound, the “ABSOLUTE EOSINOPHIL” value [2] was 0 CELLS/uL, the “ABSOLUTE LYMPHOCYTE” value [2] was 11300.5 CELLS/uL and the “ABSOLUTE MONOCYTE” value [2] was 91.33 CELLS/uL. For the same compound, the “ABSOLUTE SEGMENTED NEUTROPHIL” value [2] was 1124.83 CELLS/uL, the BASOPHIL [2] was 0% and the EOSINOPHIL [2] was 0%. The “ERYTHROCYTE COUNT” value [2] was 5.6 x10E6/uL, the HEMATOCRIT [2] was 35.9% and the HEMOGLOBIN [2] was 13 G/DL. For the same compound, the “LEUKOCYTE COUNT” value [2] was 12.52 x10E3/uL, the LYMPHOCYTE [2] was 90.17% and the “MEAN CORPUSCULAR HEMOGLOBIN” value [2] was 23.25 pg. For the same compound, the “MEAN CORPUSCULAR HEMOGLOBIN CONCENTRATION” value [2] was 36.23 G/DL, the “MEAN CORPUSCULAR VOLUME” value [2] was 64.17 fL and the MONOCYTE [2] was 0.67%. The NEUTROPHIL [2] was 9.17%, the “NUCLEATED RED BLOOD CELLS” value [2] was 0 /100WBC and the “PLATELET COUNT” value [2] was 1089.17 x10E3/uL. For the same compound, the “ALANINE AMINOTRANSFERASE” value [2] was 60.5 u/L, the ALBUMIN [2] was 4.18 G/DL and the “ALKALINE PHOSPHATASE” value [2] was 281 u/L. The “ASPARTATE AMINOTRANSFERASE” value [2] was 86.33 u/L, the “BLOOD UREA NITROGEN” value [2] was 12.33 mg/dL and the “CARBON DIOXIDE” value [2] was 28.33 mmol/L. The CHLORIDE [2] was 101.33 MEQ/L, the CHOLESTEROL [2] was 80.33 mg/dL and the “CREATINE PHOSPHOKINASE” value [2] was 216.67 u/L. The CREATININE [2] was 0.46 mg/dL, the GLUCOSE [2] was 142.83 mg/dL and the “LACTATE DEHYDROGENASE” value [2] was 151.83 u/L. The LIPASE [2] was 9.83 u/L, the PHOSPHORUS [2] was 11.08 mg/dL and the POTASSIUM [2] was 5.96 MEQ/L. The SODIUM [2] was 146.62 MEQ/L, the “TOTAL BILIRUBIN” value [2] was 0.17 mg/dL and the “TOTAL PROTEIN” value [2] was 6.02 G/DL. The “URIC ACID” value [2] was 0.97 mg/dL, the “ABSOLUTE BASOPHIL” value [3] was 0 CELLS/uL and the “ABSOLUTE EOSINOPHIL” value [3] was 38 CELLS/uL. The “ABSOLUTE LYMPHOCYTE” value [3] was 9373.67 CELLS/uL, the “ABSOLUTE MONOCYTE” value [3] was 256.5 CELLS/uL and the “ABSOLUTE SEGMENTED NEUTROPHIL” value [3] was 1531.83 CELLS/uL. For the same compound, the BASOPHIL [3] was 0%, the EOSINOPHIL [3] was 0.33% and the “ERYTHROCYTE COUNT” value [3] was 5.4 x10E6/uL. For the same compound, the HEMATOCRIT [3] was 33.48%, the HEMOGLOBIN [3] was 13.42 G/DL and the “LEUKOCYTE COUNT” value [3] was 11.2 x10E3/uL. For the same compound, the LYMPHOCYTE [3] was 84.5%, the “MEAN CORPUSCULAR HEMOGLOBIN” value [3] was 24.92 pg and the “MEAN CORPUSCULAR HEMOGLOBIN CONCENTRATION” value [3] was 40.07 G/DL. The “MEAN CORPUSCULAR VOLUME” value [3] was 62.18 fL, the MONOCYTE [3] was 2.33% and the NEUTROPHIL [3] was 12.83%. The “NUCLEATED RED BLOOD CELLS” value [3] was 0 /100WBC, the “PLATELET COUNT” value [3] was 1292.83 x10E3/uL and the “ALANINE AMINOTRANSFERASE” value [3] was 65.5 u/L. The ALBUMIN [3] was 4.38 G/DL, the “ALKALINE PHOSPHATASE” value [3] was 202.33 u/L and the “ASPARTATE AMINOTRANSFERASE” value [3] was 86.17 u/L. For the same compound, the “BLOOD UREA NITROGEN” value [3] was 13 mg/dL, the “CARBON DIOXIDE” value [3] was 29.33 mmol/L and the CHLORIDE [3] was 100.17 MEQ/L. For the same compound, the CHOLESTEROL [3] was 67.17 mg/dL, the “CREATINE PHOSPHOKINASE” value [3] was 206 u/L and the CREATININE [3] was 0.19 mg/dL. For the same compound, the GLUCOSE [3] was 138.83 mg/dL, the “LACTATE DEHYDROGENASE” value [3] was 109 u/L and the LIPASE [3] was 10 u/L. It also gave a PHOSPHORUS [3] of 10.48 mg/dL, a POTASSIUM [3] of 5.88 MEQ/L and an SODIUM [3] of 144.13 MEQ/L. For the same compound, the “TOTAL BILIRUBIN” value [3] was 0.18 mg/dL, the “TOTAL PROTEIN” value [3] was 5.83 G/DL and the “URIC ACID” value [3] was 0.88 mg/dL.
